# From patent US20200080052A1, “METHOD OF REDUCING CHROMOSOME SEGREGATION ERROR IN CELLS OF THE EARLY EMBRYO” (CENTRE HOSPITALIER DE L'UNIVERSITÉ DE MONTRÉAL, priority 2018, published 2020)
# What was measured:
# mouse embryos [1] = test: Live imaging of chromosome segregation dynamics in H2B:RFP-expressing embryos; format: cell-based; details: for change in mitosis duration: 10 nM nocodazole
# Protocol: (§1) Embryo collection, culture and chemical treatments. All experiments were approved by the Centre de Recherche du Centre Hospitalier de l'Université de Montréal (CRCHUM) Comité Institutionnel de Protection des Animaux (CIPA). Two-cell embryos were obtained from superovulated 2-3-month-old CD-1 female mice mated with CD-1 males. Embryos were collected in M2 media and cultured in KSOM media drops covered in mineral oil at 37° C. in 5% CO2. For chemical treatments, media was supplemented with the following compounds: AZ3146 (20 μM), GSK923295 (various concentrations), nocodazole (various concentrations), Cytochalasin B (5 μg/ml), MG132 (25 μM), proTAME (various concentrations). All drug stocks are dissolved in DMSO. For experiments involving proTAME, embryos were cultured without oil in 500 μL of media in 4-well plates.
# (§2) All imaging was performed on a Leica™ SP8 confocal microscope with HyD detectors. For live imaging embryos were placed in a heated top-stage incubator with CO2 supply and imaged with a 20×0.75 NA objective as previously described (Vázquez-Diez et al., 2016). All imaging was performed in ˜2 μL drops under mineral oil, for experiments involving proTAME, embryos were cultured in Ibidi micro-insert wells mounted on a glass-bottom dish with distilled water and the inventors' setup was modified to provide humidified CO2 gas supply, previously described in extensive detail (Vázquez-Diez et al., 2018).
# (§3) Z-stack images of embryos (˜50 μm) with step size 2 μm were obtained at a time interval of 30 sec for experiments concerning H2BRFP only, 2 min for H2B:RFP-GAP43:GFP, and 3 min H2B:RFP-Mad1:EGFP experiments. For live-cell experiments at two-cells, eight cell, morula and blastocyst, imaging was started at ˜48 h, 72 h, 84 h and ˜96 h post-hCG administration and mating, respectively. For immunofluorescence embryos were fixed in 2% PFA in PBS (20 min) and permeabilised in 0.25% Triton™ X-100 in PBS (10 min), for Mad2 immunofluorescence embryos were fixed for 15 min in PHEM buffer containing 2% PFA and 0.05% Triton™ X-100, and permeabilised in 0.05% Triton™ X in PHEM buffer for 15 min. Blocking was performed in 3% bovine serum albumin in PBS, for 1 hr at 37° C. or overnight at 4° C. Primary antibodies used were rabbit anti-Mad2 (1:300), mouse anti-alpha-Tubulin (1:1000), anti-rabbit and anti-mouse AlexaFluor secondaries were used at 1:1000 dilution. Alexa-555-Phalloidin (1:300) and Hoechst (1:1000) were used to visualize F-actin and DNA, respectively. Briefly, immunofluorescence confocal imaging was performed on a Leica™ SP8 microscope using a 63×1.4 NA oil objective lens, using a 1.5 μm optical section and acquiring Z-stacks with a step size of 1.5 μm, described in more detail in (Vázquez-Diez et al., 2018). In fixed-cell experiments involving GSK923295 and nocodazole embryos were exposed from the 8-cell stage, ˜72 h post-hCG and mating for ˜16 h and immediately fixed. Blastocyst immunofluorescence analysis was performed at late blastocyst stage, ˜120 h post-hCG.
# (§4) All image analysis was performed using Fiji software. Time-lapse Z-stacks were examined to determine mitosis duration and identify chromosome alignment and segregation errors. Spindle length measurements were performed measuring the distance between spindle poles, using Pythagoras' theorem where spindle poles were located on different Z-slices. Mad2 Immunofluorescence was quantified by subtracting nuclear envelope and background maximum grey values. To calculate cell volume for each cell at metaphase, areas delineated by the cell membrane (GAP43:GFP signal) were manually traced and measured at each Z-slice, the sum of the areas was multiplied by the step size (2 μm). All data analysis was performed using GraphPad™ Prism, statistical test used were accordingly noted in figures, α=0.05.
# mouse embryos [2] = test: Fixed-cell analysis of embryos after ~16 h exposure from the 8-cell stage (mitotic index, misaligned chromosomes, Mad2); format: cell-based; details: for metaphase cells with multiple misaligned chromosomes: morulae, 16 hour exposure
# Protocol: as §1, §3, §4
# mouse embryos [3] = test: Live imaging of H2B:RFP and Mad1:EGFP-expressing embryos; format: cell-based; details: 500 nM GSK923295
# Protocol: (§5) All micromanipulations were performed on a Leica™ DM14000 inverted microscope fitted with Narashige micromanipulators. […] Embryos where thoroughly washed in over a dozen drops of M2 media prior to transfer and incubation in equilibrated KSOM medium for at least 2 hours prior to imaging to allow them to recover from the cytoplasmic removal procedure. Microinjections were performed as described previously (Nakagawa and FitzHarris, 2016; Vázquez-Diez and FitzHarris, 2018; Vázquez-Diez et al., 2016). cRNA was synthesized using mMessenger Machine kit (Ambion) as previously (Nakagawa et al., 2017; Vázquez-Diez et al., 2018), from the following plasmids; pRN4-H2B:RFP, psC2-GAP43:GFP, MajSatTALE:mClover (pTALYM3B15)(Miyanari et al., 2013).
# as §2, with “2018). […]” for “2018).”
# mouse embryos [4] = test: Culture to blastocyst and immunofluorescence analysis (development, cell numbers, micronuclei per cell); format: cell-based; details: for number of micronuclei compared to controls: P<0.01; for micronuclei per cell in blastocyst: 2-cell stage to blastocyst, controls 0.022, P<0.05
# Protocol: as §1, §3, §4
# oocytes = test: Polar body extrusion (PBE) of meiosis-I in microinjected oocytes; format: cell-based, mouse; details: oocytes microinjected with Mad2 MO vs Control MO
# mouse embryos [5] = test: Cytoplasmic removal and live imaging of H2B:RFP-GAP43:GFP embryos (mitosis duration vs cell volume); format: cell-based; details: 10 nM nocodazole, un-manipulated or cytoplasmically reduced
# Protocol: as §5
# All imaging was performed on a Leica™ SP8 confocal microscope with HyD detectors. For live imaging embryos were placed in a heated top-stage incubator with CO2 supply and imaged with a 20×0.75 NA objective as previously described (Vázquez-Diez et al., 2016). […]
# All image analysis was performed using Fiji software. […] Mad2 Immunofluorescence was quantified by subtracting nuclear envelope and background maximum grey values. To calculate cell volume for each cell at metaphase, areas delineated by the cell membrane (GAP43:GFP signal) were manually traced and measured at each Z-slice, the sum of the areas was multiplied by the step size (2 μm). […]
# [6] = 500 nM GSK923295, 8-16 cell transition
# [7] = proTAME 0.01 nM-100 nM from the 2-cell stage
molecule,measurement,setting,value
CC(C)Oc1ccc(C(=O)N[C@H](CNC(=O)CN(C)C)Cc2ccc(-c3cn4cccc([C@H](C)O)c4n3)cc2)cc1Cl [GSK923295],"number of severely misaligned chromosomes at anaphase onset (span, all cases)",mouse embryos [1]; [6],"at least one, and as many as nine"
same,severely misaligned chromosomes at anaphase onset (mean),mouse embryos [1]; [6],3.6±0.3 per cell
same,NEBD to metaphase and metaphase to anaphase times,"mouse embryos [1]; 500 nM GSK, eight- to sixteen-cell division",extended
same,mitotic index,mouse embryos [2]; 500 nM GSK923295,23%
same,metaphase cells with multiple misaligned chromosomes,mouse embryos [2]; 500 nM GSK923295,93%
same,mitotic arrest with simultaneous nocodazole,"mouse embryos [2]; 1 μM nocodazole + 500 nM GSK923295, 16 hr",mounted a robust mitotic arrest
same,mitotic index,mouse embryos [2]; 5 μM GSK923295,12%
same,metaphase cells with multiple misaligned chromosomes,mouse embryos [2]; 5 μM GSK923295,100%
same,misaligned chromosomes at anaphase onset harbouring Mad1:GFP at kinetochores,mouse embryos [3],80%
same,misaligned chromosomes at anaphase onset (mean),mouse embryos [3]; H2B:RFP and Mad1:EGFP-expressing embryos,3.5±0.4 per cell
"Mad2 MO: morpholino oligonucleotide against Mad2, 5′-GCTCTCGGGCGAGCTGCTGTGCCAT-3′ (Gene tools LLC) (all phosphorodiamidate morpholino (PMO))",blastocyst cell numbers,mouse embryos [4]; Mad2 MO microinjected,Neither treatment prevented development to blastocyst or altered cell numbers
same,development to blastocyst,mouse embryos [4]; Mad2 MO microinjected,Neither treatment prevented development to blastocyst
same,number of micronuclei compared to controls,mouse embryos [4]; Mad2 MO-injected embryos vs Control MO,doubled
same,timing of meiosis-I (polar body extrusion),oocytes,characteristic acceleration of meiosis-I
AZ3146,blastocyst cell numbers,mouse embryos [4]; AZ3146 (20 μM),Neither treatment prevented development to blastocyst or altered cell numbers
same,development to blastocyst,mouse embryos [4]; AZ3146 (20 μM),Neither treatment prevented development to blastocyst
same,number of micronuclei compared to controls,mouse embryos [4]; AZ3146-treated embryos,doubled
same,duration of mitosis,"mouse embryos [1]; 20 μM AZ3146, 16-32C transition, control 53±3 mins, P<0.0001",33 ± 1 min
same,chromosomes remaining misaligned at anaphase onset,"mouse embryos [1]; 20 μM AZ3146, control 24%, P<0.0001",63%
same,reversal of nocodazole-induced mitotic arrest,mouse embryos [2]; 100 nM nocodazole and 20 μM AZ3146,the arrest was reversible
COC(=O)[C@H](CCCN/C(=N\C(=O)OCOC(=O)Cc1ccccc1)NC(=O)OCOC(=O)Cc1ccccc1)NS(=O)(=O)c1ccc(C)cc1 [proTAME],micronuclei per cell in blastocyst,mouse embryos [4]; 10 nM proTAME,0.013 micronuclei per cell
same,micronuclei per cell in blastocyst,"mouse embryos [4]; ""nM"" proTAME (figure missing)",0.012 micronuclei per cell
same,blastocyst cell number,mouse embryos [4]; [7],did not affect blastocyst cell number
same,embryo development to blastocyst,mouse embryos [4]; [7],permissive of development to blastocyst
same,embryo development to blastocyst,mouse embryos [4]; proTAME 1-10 μM from the 2-cell stage,prevented embryo development to blastocyst
same,extension of mitosis duration,mouse embryos [1]; 10 nM proTAME vs DMSO,19%
same,increase in duration of mitosis,mouse embryos [1]; 10 nM proTAME vs DMSO,~10 min
same,incidence of misaligned chromosomes at anaphase onset,"mouse embryos [1]; 10 nM proTAME, control 28%, P=0.025",16%
same,duration of mitosis,"mouse embryos [1]; 10 nM proTAME, morula stage, control 51.7±1.4, P<0.0001",61.7 ± 2.3 min
Cc1ncc([N+](=O)[O-])n1CCOC(=O)NC(Nc1ncccn1)C(Cl)(Cl)Cl (stereo not drawn) [APCin],micronuclei,mouse embryos [4]; APCin 10 μM,reduction in micronuclei
COC(=O)Nc1nc2ccc(C(=O)c3cccs3)cc2[nH]1 [nocodazole],change in mitosis duration,mouse embryos [5]; morulae,not in morulae
same,change in mitosis duration,mouse embryos [5]; two-cell stage,extended mitosis at the two-cell stage
same,change in mitosis duration,mouse embryos [1]; blastocysts (~32-64 cell stage),prolonged mitosis appreciably
same,change in mitosis duration,mouse embryos [1]; morulae (8-16 cell stage),only a minimal extension of mitosis
same,change in mitosis duration,mouse embryos [1]; two-cell stage,prolonged mitosis appreciably
same,Anaphase lagging chromosomes,mouse embryos [1]; nocodazole-treated (10 nM) morulae,19 % of divisions
same,mitotic index,"mouse embryos [2]; 100 nM nocodazole, 16-hour exposure",40%
same,mitotic index,"mouse embryos [2]; 1 μM nocodazole, 16-hour exposure",95%
same,Mad2 at kinetochores,mouse embryos [2]; nocodazole-treated cells,Mad2 was evident at kinetochores
